≈ marks a conversion by molar mass, not a printed value. Where two headings read alike, the source gives them in different places.
Columns and labels:
[1] = Solubility trials: saturation concentration of the oxazaphosphorine in water / aqueous urea solution; conditions: for pH-Wert: saturated Ifosfamid solution
[2] = cited from earlier work
[3] = water, Sättigungskonzentration in Wasser, in Wasser

SMILES: O=P1(N(CCCl)CCCl)NCCCO1 (stereo not shown) [Cyclophosphamid]
- solubility ([1]; aqueous urea solution, Cyclophosphamid-Endkonzentration, Harnstoff-Startkonzentration 10 % (G/V), Harnstoff-Endkonzentration 9,1 % (G/G)): 87 mg/mL (≈ 333 mM)
- solubility ([1]; aqueous urea solution, Cyclophosphamid-Endkonzentration, Harnstoff-Startkonzentration 20 % (G/V), Harnstoff-Endkonzentration 17,0 % (G/G)): 112 mg/mL (≈ 429 mM)
- solubility ([1]; aqueous urea solution, Cyclophosphamid-Endkonzentration, Harnstoff-Startkonzentration 30 % (G/V), Harnstoff-Endkonzentration 24,2 % (G/G)): 136 mg/mL (≈ 521 mM)
- solubility ([1]; aqueous urea solution, Cyclophosphamid-Endkonzentration, Harnstoff-Startkonzentration 40 % (G/V), Harnstoff-Endkonzentration 30,3 % (G/G)): 172 mg/mL (≈ 659 mM)
- solubility ([1]; aqueous urea solution, Cyclophosphamid-Endkonzentration, Harnstoff-Startkonzentration 45 % (G/V), Harnstoff-Endkonzentration 37,3 % (G/G)): 170 mg/mL (≈ 651 mM)
- solubility ([1]; aqueous urea solution, Cyclophosphamid-Endkonzentration, Harnstoff-Startkonzentration 50 % (G/V), Harnstoff-Endkonzentration 45,2 % (G/G)): 152 mg/mL (≈ 582 mM)
- solubility ([1]; aqueous urea solution, Cyclophosphamid-Sättigungskonzentration, with Harnstoff, up to Harnstoffstartkonzentration 50% (G/V)): ≤ 170 mg/mL
- solubility ([1]; water, Cyclophosphamid-Endkonzentration, Harnstoff-Startkonzentration 0 % (G/V), Harnstoff-Endkonzentration 0 % (G/G)): 61 mg/mL (≈ 234 mM)
- solubility [1, 3]: ~60 mg/mL (≈ 230 mM)
- Wirkstoffverlust ([2]; 2%ige (G/V) wäßrige Cyclophosphamidlösungen, 2 bis 8°C, nach 17 Wochen, 171360 min): ≤ 10%
- Wirkstoffverlust ([2]; 2%ige (G/V) wäßrige Cyclophosphamidlösungen, Raumtemperatur, nach 7 Tagen): ≤ 10%

SMILES: O=P1(NCCCl)OCCCN1CCCl (stereo not shown) [Ifosfamid]
- solubility ([1]; aqueous urea solution, Ifosfamid-Endkonzentration, Harnstoff-Startkonzentration 1,0 % (G/V), Harnstoff-Endkonzentration 0,8 % (G/G)): 128 mg/mL (≈ 490 mM)
- solubility ([1]; aqueous urea solution, Ifosfamid-Endkonzentration, Harnstoff-Startkonzentration 2,0 % (G/V), Harnstoff-Endkonzentration 1,6 % (G/G)): 132 mg/mL (≈ 506 mM)
- solubility ([1]; aqueous urea solution, Ifosfamid-Endkonzentration, Harnstoff-Startkonzentration 3,0 % (G/V), Harnstoff-Endkonzentration 2,4 % (G/G)): 139 mg/mL (≈ 532 mM)
- solubility ([1]; aqueous urea solution, Ifosfamid-Endkonzentration, Harnstoff-Startkonzentration 4,0 % (G/V), Harnstoff-Endkonzentration 3,2 % (G/G)): 147 mg/mL (≈ 563 mM)
- solubility ([1]; aqueous urea solution, Ifosfamid-Endkonzentration, Harnstoff-Startkonzentration 5,0 % (G/V), Harnstoff-Endkonzentration 3,8 % (G/G)): 153 mg/mL (≈ 586 mM)
- solubility ([1]; aqueous urea solution, Ifosfamid-Endkonzentration, Harnstoff-Startkonzentration 6,0 % (G/V), Harnstoff-Endkonzentration 4,4 % (G/G)): 159 mg/mL (≈ 609 mM)
- solubility ([1]; aqueous urea solution, Ifosfamid-Endkonzentration, Harnstoff-Startkonzentration 7,0 % (G/V), Harnstoff-Endkonzentration 4,6 % (G/G)): 169 mg/mL (≈ 647 mM)
- solubility ([1]; aqueous urea solution, Ifosfamid-Endkonzentration, Harnstoff-Startkonzentration 8,0 % (G/V), Harnstoff-Endkonzentration 5,0 % (G/G)): 172 mg/mL (≈ 659 mM)
- solubility ([1]; aqueous urea solution, Ifosfamid-Endkonzentration, Harnstoff-Startkonzentration 9,0 % (G/V), Harnstoff-Endkonzentration 5,1 % (G/G)): 173 mg/mL (≈ 663 mM)
- solubility ([1]; aqueous urea solution, Ifosfamid-Endkonzentration, Harnstoff-Startkonzentration 10,0 % (G/V), Harnstoff-Endkonzentration 6,6 % (G/G)): 370 mg/mL (≈ 1420 mM)
- solubility ([1]; aqueous urea solution, Ifosfamid-Endkonzentration, Harnstoff-Startkonzentration 12,5 % (G/V), Harnstoff-Endkonzentration 7,0 % (G/G)): 412 mg/mL (≈ 1580 mM)
- solubility ([1]; aqueous urea solution, Ifosfamid-Endkonzentration, Harnstoff-Startkonzentration 15 % (G/V), Harnstoff-Endkonzentration 12,2 % (G/G)): 462 mg/mL (≈ 1770 mM)
- solubility ([1]; aqueous urea solution, Ifosfamid-Endkonzentration, Harnstoff-Startkonzentration 20 % (G/V), Harnstoff-Endkonzentration 15,8 % (G/G)): 483 mg/mL (≈ 1850 mM)
- solubility ([1]; aqueous urea solution, Ifosfamid-Endkonzentration, Harnstoff-Startkonzentration 30 % (G/V), Harnstoff-Endkonzentration 24,2 % (G/G)): 521 mg/mL (≈ 2000 mM)
- solubility ([1]; aqueous urea solution, Ifosfamid-Endkonzentration, Harnstoff-Startkonzentration 40 % (G/V), Harnstoff-Endkonzentration 34,3 % (G/G)): 462 mg/mL (≈ 1770 mM)
- solubility ([1]; aqueous urea solution, Ifosfamid-Endkonzentration, Harnstoff-Startkonzentration 50 % (G/V), Harnstoff-Endkonzentration 42,1 % (G/G)): 443 mg/mL (≈ 1700 mM)
- solubility ([1]; aqueous urea solution, Ifosfamid-Sättigungskonzentration, bei geeigneter Harnstoffkonzentration): ~500 mg/mL (≈ 1920 mM)
- pH-Wert ([1]; Harnstoff-Startkonzentration 0 % (G/V)): 5,2
- pH-Wert ([1]; Harnstoff-Startkonzentration 1,0 % (G/V)): 5,0
- pH-Wert ([1]; Harnstoff-Startkonzentration 2,0 % (G/V)): 5,0
- pH-Wert ([1]; Harnstoff-Startkonzentration 3,0 % (G/V)): 5,0
- pH-Wert ([1]; Harnstoff-Startkonzentration 4,0 % (G/V)): 5,1
- pH-Wert ([1]; Harnstoff-Startkonzentration 5,0 % (G/V)): 5,1
- pH-Wert ([1]; Harnstoff-Startkonzentration 6,0 % (G/V)): 5,1
- pH-Wert ([1]; Harnstoff-Startkonzentration 7,0 % (G/V)): 5,1
- pH-Wert ([1]; Harnstoff-Startkonzentration 8,0 % (G/V)): 5,1
- pH-Wert ([1]; Harnstoff-Startkonzentration 9,0 % (G/V)): 5,2
- pH-Wert ([1]; Harnstoff-Startkonzentration 10,0 % (G/V)): 5,1
- pH-Wert ([1]; Harnstoff-Startkonzentration 12,5 % (G/V)): 5,0
- pH-Wert ([1]; Harnstoff-Startkonzentration 15 % (G/V)): 5,0
- pH-Wert ([1]; Harnstoff-Startkonzentration 20 % (G/V)): 5,0
- pH-Wert ([1]; Harnstoff-Startkonzentration 30 % (G/V)): 5,0
- pH-Wert ([1]; Harnstoff-Startkonzentration 40 % (G/V)): 5,0
- pH-Wert ([1]; Harnstoff-Startkonzentration 50 % (G/V)): 5,0
- solubility ([1]; water, Ifosfamid-Endkonzentration, Harnstoff-Startkonzentration 0 % (G/V), Harnstoff-Endkonzentration 0 % (G/G)): 118 mg/mL (≈ 452 mM)
- solubility [1, 3]: ~120 mg/mL (≈ 460 mM)
- Wirkstoffverlust ([2]; 5%ige und 10%ige (G/V) wäßrige Ifosfamidlösungen, 2 bis 8°C, nach 17 Wochen, 171360 min): ≤ 10%
- Wirkstoffverlust ([2]; 5%ige und 10%ige (G/V) wäßrige Ifosfamidlösungen, Raumtemperatur, nach 6 Wochen, 60480 min): ≤ 10%

From patent EP1023075B1, “LIQUID PRESENTATIONS OF OXAZAPHOSPHORINE-CONTAINING PHARMACEUTICAL PRODUCTS” (STADA ARZNEIMITTEL AG, priority 1997, dated 1999)
